Common to all, as to format: functional, cell-based
One assay has as its system PANC-1. Nature of the assay: Cytotoxicity against human PANC-1 cells assessed as reduction in cell viability by CCK-8 assay.
A further assay concerns PC-3M. Put plainly: Cytotoxicity against human PC-3M cells assessed as reduction in cell viability by CCK-8 assay.
A further assay deals with A549. Put plainly: Cytotoxicity against human A549 cells assessed as reduction in cell viability by CCK-8 assay. On the technique in general: Tetrazolium assays rely on reduction of a dye to a coloured formazan, in cell work by metabolically active cells.
The subject of the next assay is HepG2. Nature of the assay: Cytotoxicity against human HepG2 cells assessed as reduction in cell viability by CCK-8 assay.
The test system of another assay is MCF7. Nature of the assay: Cytotoxicity against human MCF7 cells assessed as reduction in cell viability by CCK-8 assay.

Structures are written as SMILES. Where only a bound is given, the exact number is not on record here.

On to `C=C(C)[C@@H]1CC[C@]2(C(=O)OCCCCCn3cnc(C)c3)CC[C@]3(C)[C@H](C[C@@H](O)[C@@H]4[C@@]5(C)C(CC(=O)OC)OC(C)(C)C5CC[C@]43C)[C@@H]12` (stereo not given in full), for which the IC50 in the assay with PANC-1 was determined as 33.2 µM; in the assay with PC-3M, 30.1 µM; in the assay on A549 it was 28.5 µM; in the assay with HepG2 it was 14.1 µM; in the assay on MCF7 it was 60.8 µM.
The like results for `C=C(C)[C@@H]1CC[C@]2(C(=O)OCCCCCCCCCCn3cc(CCN)c4ccccc43)CC[C@]3(C)[C@H](C[C@H]4OC(=O)C[C@@H](O)[C@]5(C)[C@@H]4[C@@]3(C)CC[C@H]5C(=C)C)[C@@H]12` were, in that order, 5.59 µM, 5.69 µM, 6.59 µM, 1.68 µM and 5.48 µM.
For the compound `C=C(C)[C@@H]1CC[C@]2(C(=O)OCCCBr)CC[C@]3(C)[C@H](C[C@@H](O)[C@@H]4[C@@]5(C)C(CC(=O)OC)OC(C)(C)C5CC[C@]43C)[C@@H]12` (stereo not given in full), the IC50 in the assay on PANC-1 turned out to be 70.7 µM; in the assay with PC-3M, 47.6 µM; with A549, 41.2 µM; in the assay on HepG2, 28.6 µM; in the assay with MCF7, 98.8 µM.
Take `C=C(C)[C@@H]1CC[C@]2(C(=O)OCCCCCn3ccnc3)CC[C@]3(C)[C@H](C[C@@H](O)[C@@H]4[C@@]5(C)C(CC(=O)OC)OC(C)(C)C5CC[C@]43C)[C@@H]12` (stereo not given in full): the 50% inhibitory concentration (IC50) in the assay with PANC-1 is 50 µM; in the assay with PC-3M it was 30.6 µM; in the assay with A549, 34.9 µM; in the assay on HepG2, 24.6 µM; in the assay on MCF7, 65.1 µM.
With `C=C(C)[C@@H]1CC[C@]2(C(=O)OCCCCCCCCCCn3cnc(C)c3)CC[C@]3(C)[C@H](C[C@@H](O)[C@@H]4[C@@]5(C)C(CC(=O)OC)OC(C)(C)C5CC[C@]43C)[C@@H]12` (stereo not given in full), the IC50 in the assay with PANC-1 stood at 12.3 µM; in the assay with PC-3M, 12.7 µM; with A549 it was 22.4 µM; in the assay with HepG2 it was 6.76 µM; in the assay on MCF7, 33.7 µM.
The like results for `C=C(C)[C@@H]1CC[C@]2(C(=O)OCCCCn3cncn3)CC[C@]3(C)[C@H](C[C@@H](O)[C@@H]4[C@@]5(C)C(CC(=O)OC)OC(C)(C)C5CC[C@]43C)[C@@H]12` (stereo not given in full) were, in that order, 58.6 µM, 45.3 µM, 42.4 µM, 26.1 µM and 75.2 µM.
For the compound `C=C(C)[C@@H]1CC[C@]2(C(=O)OCCCCCCn3ccnc3C)CC[C@]3(C)[C@H](C[C@@H](O)[C@@H]4[C@@]5(C)C(CC(=O)OC)OC(C)(C)C5CC[C@]43C)[C@@H]12` (stereo not given in full), the IC50 in the assay on PANC-1 came out at 18.7 µM; in the assay on PC-3M it was 20.9 µM; in the assay with A549, 25.4 µM; in the assay on HepG2, 12 µM; in the assay with MCF7 it was 29.9 µM.
Regarding `C=C(C)[C@@H]1CC[C@]2(C(=O)OCCCCCCn3ccnc3CC)CC[C@]3(C)[C@H](C[C@H]4OC(=O)C[C@@H](O)[C@]5(C)[C@@H]4[C@@]3(C)CC[C@H]5C(=C)C)[C@@H]12`, the IC50 was determined as 17.5 µM in the assay on PANC-1; 12.9 µM with PC-3M; 14.6 µM in the assay on A549; 3.59 µM in the assay with HepG2; 48.8 µM with MCF7.
The like results for `C=C(C)[C@@H]1CC[C@]2(C(=O)OCCCCCCCCCCBr)CC[C@]3(C)[C@H](C[C@@H](O)[C@@H]4[C@@]5(C)C(CC(=O)OC)OC(C)(C)C5CC[C@]43C)[C@@H]12` (stereo not given in full) were, in that order, 15.1 µM, 16.6 µM, 34.6 µM, 15.1 µM and 88.5 µM.
Turning to `C=C(C)[C@@H]1CC[C@]2(C(=O)OCCCCn3cc(CCN)c4ccccc43)CC[C@]3(C)[C@H](C[C@H]4OC(=O)C[C@@H](O)[C@]5(C)[C@@H]4[C@@]3(C)CC[C@H]5C(=C)C)[C@@H]12`, the IC50 in the assay with PANC-1 was 8.73 µM; in the assay on PC-3M it was 6.64 µM; in the assay with A549, 6.72 µM; in the assay with HepG2 it was 1.02 µM; in the assay on MCF7, 11.7 µM.
For `C=C(C)[C@@H]1CC[C@]2(C(=O)OCCCn3cc(CCN)c4ccccc43)CC[C@]3(C)[C@H](C[C@@H](O)[C@@H]4[C@@]5(C)C(CC(=O)OC)OC(C)(C)C5CC[C@]43C)[C@@H]12` (stereo not given in full), the IC50 was found to be 7.04 µM in the assay on PANC-1; 7.6 µM with PC-3M; 7.67 µM with A549; 2.51 µM with HepG2; 8.05 µM with MCF7.
The matching figures for `C=C(C)[C@@H]1CC[C@]2(C(=O)OCCCCCn3cncn3)CC[C@]3(C)[C@H](C[C@@H](O)[C@@H]4[C@@]5(C)C(CC(=O)OC)OC(C)(C)C5CC[C@]43C)[C@@H]12` (stereo not given in full): 90 µM, 32.3 µM, 57.9 µM, 37.2 µM and 81.6 µM.
Turning to `C=C(C)[C@@H]1CC[C@]2(C(=O)OCCCCCCn3ccnc3)CC[C@]3(C)[C@H](C[C@@H](O)[C@@H]4[C@@]5(C)C(CC(=O)OC)OC(C)(C)C5CC[C@]43C)[C@@H]12` (stereo not given in full), the concentration for half-maximal inhibition (IC50) was 25.9 µM in the assay with PANC-1; 19.7 µM in the assay on PC-3M; 26.1 µM in the assay with A549; 15.8 µM in the assay with HepG2; 45.5 µM with MCF7.
As for `C=C(C)[C@@H]1CC[C@]2(C(=O)OCCCCn3ccnc3C)CC[C@]3(C)[C@H](C[C@@H](O)[C@@H]4[C@@]5(C)C(CC(=O)OC)OC(C)(C)C5CC[C@]43C)[C@@H]12` (stereo not given in full), the IC50 in the assay on PANC-1 is 48.3 µM; with PC-3M, 36 µM; in the assay on A549, 31.4 µM; with HepG2, 21.7 µM; with MCF7, 67.3 µM.
The like results for `C=C(C)[C@@H]1CC[C@]2(C(=O)OCCCCCBr)CC[C@]3(C)[C@H](C[C@@H](O)[C@@H]4[C@@]5(C)C(CC(=O)OC)OC(C)(C)C5CC[C@]43C)[C@@H]12` (stereo not given in full) were, in that order, 54.9 µM, 44.1 µM, 40.6 µM, 27.7 µM and 80 µM.
The like results for `C=C(C)[C@@H]1CC[C@]2(C(=O)OCCCCCCCCCCn3ccnc3)CC[C@]3(C)[C@H](C[C@@H](O)[C@@H]4[C@@]5(C)C(CC(=O)OC)OC(C)(C)C5CC[C@]43C)[C@@H]12` (stereo not given in full) were, in that order, 14 µM, 14 µM, 22.4 µM, 6.83 µM and 36.1 µM.
Take `C=C(C)[C@@H]1CC[C@]2(C(=O)OCCCCBr)CC[C@]3(C)[C@H](C[C@H]4OC(=O)C[C@@H](O)[C@]5(C)[C@@H]4[C@@]3(C)CC[C@H]5C(=C)C)[C@@H]12`: the IC50 with PANC-1 was 200 µM; in the assay with PC-3M, 82.2 µM; with A549, 89 µM; in the assay on HepG2 it was 124 µM; with MCF7, greater than 200 µM.
As for `C=C(C)[C@@H]1CC[C@]2(C(=O)OCCCn3ccnc3C)CC[C@]3(C)[C@H](C[C@H]4OC(=O)C[C@@H](O)[C@]5(C)[C@@H]4[C@@]3(C)CC[C@H]5C(=C)C)[C@@H]12`, the IC50 in the assay on PANC-1 worked out at 24.8 µM; in the assay on PC-3M, 16 µM; in the assay on A549, 21.5 µM; in the assay with HepG2, 14.6 µM; in the assay with MCF7, 46.8 µM.
As to `C=C(C)[C@@H]1CC[C@]2(C(=O)OCCCCn3ccnc3CC)CC[C@]3(C)[C@H](C[C@@H](O)[C@@H]4[C@@]5(C)C(CC(=O)OC)OC(C)(C)C5CC[C@]43C)[C@@H]12` (stereo not given in full), the IC50 with PANC-1 amounted to 31.5 µM; in the assay with PC-3M, 25.9 µM; in the assay on A549 it was 28.5 µM; in the assay on HepG2, 15.7 µM; in the assay on MCF7, 40.3 µM.
The like results for `C=C(C)[C@@H]1CC[C@]2(C(=O)OCCCCCCCCCCn3ccnc3C)CC[C@]3(C)[C@H](C[C@@H](O)[C@@H]4[C@@]5(C)C(CC(=O)OC)OC(C)(C)C5CC[C@]43C)[C@@H]12` (stereo not given in full) were, in that order, 7.95 µM, 10.3 µM, 19.5 µM, 4.91 µM and 19.4 µM.
As for `C=C(C)[C@@H]1CC[C@]2(C(=O)OCCCCCCn3ccnc3CC)CC[C@]3(C)[C@H](C[C@@H](O)[C@@H]4[C@@]5(C)C(CC(=O)OC)OC(C)(C)C5CC[C@]43C)[C@@H]12` (stereo not given in full), the IC50 in the assay with PANC-1 was 18.5 µM; in the assay on PC-3M, 19.6 µM; in the assay on A549, 24.1 µM; with HepG2 it was 16.9 µM; in the assay with MCF7, 34.5 µM.
Take `C=C(C)[C@@H]1CC[C@]2(C(=O)OCCCBr)CC[C@]3(C)[C@H](C[C@H]4OC(=O)C[C@@H](O)[C@]5(C)[C@@H]4[C@@]3(C)CC[C@H]5C(=C)C)[C@@H]12`: the IC50 with PANC-1 is greater than 200 µM; in the assay with PC-3M, 109 µM; in the assay with A549, 136 µM; in the assay with HepG2, greater than 200 µM; with MCF7 it was greater than 200 µM.
For the compound `C=C(C)[C@@H]1CC[C@]2(C(=O)OCCCCCCCCCCn3cc(CCN)c4ccccc43)CC[C@]3(C)[C@H](C[C@@H](O)[C@@H]4[C@@]5(C)C(CC(=O)OC)OC(C)(C)C5CC[C@]43C)[C@@H]12` (stereo not given in full), the IC50 with PANC-1 came to 5.63 µM; with PC-3M, 5.7 µM; in the assay with A549, 7.97 µM; in the assay on HepG2, 2.11 µM; in the assay on MCF7, 25.5 µM.
The matching figures for `C=C(C)[C@@H]1CC[C@]2(C(=O)OCCCCCCCCCCn3cncn3)CC[C@]3(C)[C@H](C[C@H]4OC(=O)C[C@@H](O)[C@]5(C)[C@@H]4[C@@]3(C)CC[C@H]5C(=C)C)[C@@H]12`: 36.4 µM, 19.9 µM, 29.4 µM, 14.6 µM and 46.2 µM.
The like results for `C=C(C)[C@@H]1CC[C@]2(C(=O)OCCCCn3cc(CCN)c4ccccc43)CC[C@]3(C)[C@H](C[C@@H](O)[C@@H]4[C@@]5(C)C(CC(=O)OC)OC(C)(C)C5CC[C@]43C)[C@@H]12` (stereo not given in full) were, in that order, 6.42 µM, 5.66 µM, 7.05 µM, 1.7 µM and 6.25 µM.

One may read the IC50 as the point on the concentration scale where inhibition reaches its midpoint.

The record behind these values is ChEMBL document CHEMBL5143734, “Seco-Lupane Triterpene Derivatives Induce Ferroptosis through GPX4/ACSL4 Axis and Target Cyclin D1 to Block the Cell Cycle” (J Med Chem, 2022).
